Patent US9682141B2, “Combination of kinase inhibitors and uses thereof” (INTELLIKINE LLC, priority 2011, dated 2017)
pIC50: −log10 of the molar value. Like-named read-outs stand apart in the source and are kept apart here.

Tests used:
Assay type in all cases: biochemical
[1] = target: PI3K γ (Homo sapiens (Human), UniProt P48736); assay: PI 3-Kinase (human) HTRF assay, p110γ
[2] = target: PI3K α (Homo sapiens (Human), UniProt P42336); assay: PI 3-Kinase (human) HTRF assay, p110α/p85α
[3] = target: mTORC (Homo sapiens (Human), UniProt P42345); assay: mTOR inhibition assay (radiometric or LanthaScreen TR-FRET)
[4] = PI 3-Kinase (human) HTRF assay, p110δ/p85α; settings: read-out: PI3K γ IC50
[5] = target: PI3K β (Homo sapiens (Human), UniProt P42338); assay: PI 3-Kinase (human) HTRF assay, p110β/p85α
[6] = target: PI3K δ (Homo sapiens (Human), UniProt O00329); assay: PI 3-Kinase (human) HTRF assay, p110δ/p85α
Chain of PI3K δ (O00329 whole entry): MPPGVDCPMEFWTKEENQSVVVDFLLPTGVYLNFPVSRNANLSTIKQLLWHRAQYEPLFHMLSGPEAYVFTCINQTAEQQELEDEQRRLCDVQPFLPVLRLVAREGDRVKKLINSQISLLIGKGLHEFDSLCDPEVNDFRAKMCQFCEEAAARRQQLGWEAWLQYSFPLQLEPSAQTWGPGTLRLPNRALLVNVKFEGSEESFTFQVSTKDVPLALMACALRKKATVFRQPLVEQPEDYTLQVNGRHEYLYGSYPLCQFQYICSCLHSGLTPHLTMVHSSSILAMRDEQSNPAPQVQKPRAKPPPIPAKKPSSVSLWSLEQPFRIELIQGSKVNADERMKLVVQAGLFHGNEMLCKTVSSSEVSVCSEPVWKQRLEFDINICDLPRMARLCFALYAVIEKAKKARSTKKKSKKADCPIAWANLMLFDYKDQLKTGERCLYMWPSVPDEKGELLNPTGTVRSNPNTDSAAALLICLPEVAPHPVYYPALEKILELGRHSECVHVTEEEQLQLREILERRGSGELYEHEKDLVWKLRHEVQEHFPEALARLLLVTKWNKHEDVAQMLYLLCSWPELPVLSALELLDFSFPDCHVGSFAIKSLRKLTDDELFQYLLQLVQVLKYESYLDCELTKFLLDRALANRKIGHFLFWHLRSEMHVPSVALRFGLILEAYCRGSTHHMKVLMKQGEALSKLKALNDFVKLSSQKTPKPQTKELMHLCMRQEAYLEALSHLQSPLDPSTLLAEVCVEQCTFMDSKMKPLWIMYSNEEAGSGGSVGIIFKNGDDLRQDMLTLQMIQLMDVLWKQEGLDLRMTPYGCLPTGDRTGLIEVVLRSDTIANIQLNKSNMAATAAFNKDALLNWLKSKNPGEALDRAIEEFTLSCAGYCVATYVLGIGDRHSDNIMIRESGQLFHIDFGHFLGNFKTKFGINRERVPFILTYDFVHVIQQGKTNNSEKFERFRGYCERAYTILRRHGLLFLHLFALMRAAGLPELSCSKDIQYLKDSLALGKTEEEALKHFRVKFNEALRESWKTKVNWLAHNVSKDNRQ
Chain of PI3K δ (P27986 whole entry partner): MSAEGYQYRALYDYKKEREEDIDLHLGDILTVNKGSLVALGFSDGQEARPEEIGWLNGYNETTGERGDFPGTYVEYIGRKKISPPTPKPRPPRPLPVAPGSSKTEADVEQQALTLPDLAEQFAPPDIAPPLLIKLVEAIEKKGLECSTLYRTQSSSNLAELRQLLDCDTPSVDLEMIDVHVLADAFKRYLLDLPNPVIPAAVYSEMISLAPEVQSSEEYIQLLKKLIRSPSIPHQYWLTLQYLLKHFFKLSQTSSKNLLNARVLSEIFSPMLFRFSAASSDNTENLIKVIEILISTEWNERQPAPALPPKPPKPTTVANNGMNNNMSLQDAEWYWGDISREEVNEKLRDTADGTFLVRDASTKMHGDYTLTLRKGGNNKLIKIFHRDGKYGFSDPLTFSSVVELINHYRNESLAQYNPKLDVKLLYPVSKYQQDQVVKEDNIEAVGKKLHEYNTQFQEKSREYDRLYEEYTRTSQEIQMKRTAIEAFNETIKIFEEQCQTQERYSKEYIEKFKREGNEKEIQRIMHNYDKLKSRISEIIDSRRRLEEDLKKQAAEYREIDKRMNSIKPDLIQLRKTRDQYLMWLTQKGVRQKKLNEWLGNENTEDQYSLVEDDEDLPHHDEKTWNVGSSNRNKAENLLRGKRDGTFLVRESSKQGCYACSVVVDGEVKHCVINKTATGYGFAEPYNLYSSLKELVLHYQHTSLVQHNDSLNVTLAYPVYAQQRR

Chain of mTORC (P42345 1360-2549): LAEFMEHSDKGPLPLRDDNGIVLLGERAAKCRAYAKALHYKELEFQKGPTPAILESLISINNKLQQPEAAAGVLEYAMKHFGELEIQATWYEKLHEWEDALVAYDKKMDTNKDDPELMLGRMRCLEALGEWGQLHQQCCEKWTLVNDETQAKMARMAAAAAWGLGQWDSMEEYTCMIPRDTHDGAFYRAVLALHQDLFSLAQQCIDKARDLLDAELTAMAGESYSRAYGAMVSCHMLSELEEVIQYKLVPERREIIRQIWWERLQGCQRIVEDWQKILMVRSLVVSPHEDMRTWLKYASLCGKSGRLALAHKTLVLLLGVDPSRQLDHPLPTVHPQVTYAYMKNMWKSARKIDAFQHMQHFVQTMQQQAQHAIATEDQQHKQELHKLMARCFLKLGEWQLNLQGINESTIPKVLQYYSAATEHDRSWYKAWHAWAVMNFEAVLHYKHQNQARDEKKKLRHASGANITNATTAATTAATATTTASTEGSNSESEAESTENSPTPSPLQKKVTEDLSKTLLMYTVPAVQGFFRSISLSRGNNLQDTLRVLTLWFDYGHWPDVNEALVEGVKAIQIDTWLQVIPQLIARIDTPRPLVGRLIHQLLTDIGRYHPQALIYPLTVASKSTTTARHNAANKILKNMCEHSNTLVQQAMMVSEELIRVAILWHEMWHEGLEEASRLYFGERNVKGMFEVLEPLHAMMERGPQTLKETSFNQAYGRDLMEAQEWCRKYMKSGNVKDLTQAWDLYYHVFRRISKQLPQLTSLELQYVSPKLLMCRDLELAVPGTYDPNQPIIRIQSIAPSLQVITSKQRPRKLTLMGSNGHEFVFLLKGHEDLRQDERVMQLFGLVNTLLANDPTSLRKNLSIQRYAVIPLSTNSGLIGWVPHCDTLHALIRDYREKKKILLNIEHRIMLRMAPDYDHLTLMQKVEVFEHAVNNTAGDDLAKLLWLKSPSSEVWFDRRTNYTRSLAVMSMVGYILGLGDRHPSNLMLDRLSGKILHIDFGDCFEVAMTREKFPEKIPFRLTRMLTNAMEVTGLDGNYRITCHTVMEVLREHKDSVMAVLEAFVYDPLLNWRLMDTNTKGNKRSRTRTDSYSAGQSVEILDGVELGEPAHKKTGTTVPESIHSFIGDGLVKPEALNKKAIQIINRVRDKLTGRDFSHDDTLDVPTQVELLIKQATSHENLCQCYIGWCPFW
Chain of PI3K β (P42338 whole entry): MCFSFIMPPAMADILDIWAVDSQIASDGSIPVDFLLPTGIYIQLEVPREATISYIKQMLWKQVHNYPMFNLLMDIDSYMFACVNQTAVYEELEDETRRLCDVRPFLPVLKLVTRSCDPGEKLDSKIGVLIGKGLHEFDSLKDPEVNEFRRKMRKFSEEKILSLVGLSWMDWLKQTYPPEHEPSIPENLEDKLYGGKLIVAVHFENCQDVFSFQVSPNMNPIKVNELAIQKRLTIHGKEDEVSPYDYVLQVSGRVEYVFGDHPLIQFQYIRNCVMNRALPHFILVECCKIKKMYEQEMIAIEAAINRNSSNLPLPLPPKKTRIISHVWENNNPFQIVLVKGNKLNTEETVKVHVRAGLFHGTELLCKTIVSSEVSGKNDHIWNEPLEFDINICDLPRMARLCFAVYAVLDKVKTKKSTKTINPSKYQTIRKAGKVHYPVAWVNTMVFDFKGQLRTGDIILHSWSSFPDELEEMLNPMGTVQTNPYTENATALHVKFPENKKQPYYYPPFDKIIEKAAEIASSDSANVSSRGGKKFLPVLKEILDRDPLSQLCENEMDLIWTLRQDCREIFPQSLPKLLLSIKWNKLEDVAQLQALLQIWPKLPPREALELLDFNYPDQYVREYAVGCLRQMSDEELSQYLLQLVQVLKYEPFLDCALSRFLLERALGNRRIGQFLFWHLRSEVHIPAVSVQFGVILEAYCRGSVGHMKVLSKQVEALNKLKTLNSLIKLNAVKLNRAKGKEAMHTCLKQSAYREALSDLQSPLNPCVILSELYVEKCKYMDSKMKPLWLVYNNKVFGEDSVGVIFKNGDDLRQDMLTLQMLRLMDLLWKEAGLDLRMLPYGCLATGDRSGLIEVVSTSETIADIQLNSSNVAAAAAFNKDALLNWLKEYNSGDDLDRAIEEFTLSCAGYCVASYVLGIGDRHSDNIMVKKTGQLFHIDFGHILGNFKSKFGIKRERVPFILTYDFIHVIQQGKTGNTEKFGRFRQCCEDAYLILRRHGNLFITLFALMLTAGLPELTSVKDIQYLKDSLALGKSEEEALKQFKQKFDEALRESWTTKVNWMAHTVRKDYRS
Chain of PI3K β (P27986 whole entry partner): as the sequence (P27986 whole entry partner) above

Row | pIC50 ([1]; read-out: PI3K γ IC50) | pIC50 [6] | Compound | pIC50 ([1]; read-out: PI3K δ IC50) | pIC50 [2] | pIC50 [3] | pIC50 [4] | pIC50 [5]
1 |  |  | CN1CCN(C2CN(c3cnc4ccc(-c5ccc6oc(N)nc6c5)cc4n3)C2)CC1=O | > 6.00 | > 7.00 | < 5.00 | > 5.00 | > 5.00
2 |  |  | CCN(CC)C1CN(c2cnc3ccc(-c4ccc5oc(N)nc5c4)cc3n2)C1 | > 6.00 | > 7.00 | < 5.00 | > 5.00 | > 5.00
3 |  |  | Nc1nc2cc(-c3ccc4ncc(N5CC(N6CCNCC6)C5)nc4c3)ccc2o1 | > 6.00 | > 7.00 | < 5.00 | > 6.00 | > 6.00
4 |  |  | CC(=O)N1CCN(C2CN(c3cnc4ccc(-c5ccc6oc(N)nc6c5)cc4n3)C2)CC1 | > 6.00 | > 7.00 | < 5.00 | > 6.00 | > 5.00
5 |  |  | CS(=O)(=O)N1CCN(C2CN(c3cnc4ccc(-c5ccc6oc(N)nc6c5)cc4n3)C2)CC1 | > 5.00 | > 7.00 | < 5.00 | > 5.00 | > 5.00
6 |  |  | CCN1CCN(C2CN(c3cnc4ccc(-c5ccc6oc(N)nc6c5)cc4n3)C2)CC1 | > 5.00 | > 7.00 | < 5.00 | > 6.00 | > 6.00
7 |  |  | COC(=O)N1CCC(n2ncc3c(N4CCOCC4)nc(-c4ccc5oc(N)nc5c4)nc32)CC1 | < 5.00 | > 6.00 | > 6.00 | < 5.00 | > 5.00
8 |  |  | CC(C)N1CCN(C2CN(c3cnc4ccc(-c5ccc6oc(N)nc6c5)cc4n3)C2)CC1 | > 5.00 | > 7.00 | < 5.00 | > 5.00 | > 5.00
9 |  |  | Nc1nc2cc(-c3ccc4ncc(N5CC(N6CCN(CCO)CC6)C5)nc4c3)ccc2o1 | > 5.00 | > 7.00 | < 5.00 | > 6.00 | > 5.00
10 |  |  | Nc1nc2cc(-c3ccc4ncc(N5CC(N6CCN(CC7CC7)CC6)C5)nc4c3)ccc2o1 | < 5.00 | > 7.00 | < 5.00 | > 5.00 | > 5.00
11 |  |  | Nc1nc2cc(-c3ccc4ncc(N5CCC(n6ccnc6)CC5)nc4c3)ccc2o1 | > 6.00 | > 7.00 | > 5.00 | > 6.00 | > 6.00
12 |  |  | Nc1nc2cc(-c3nc(N4CCOCC4)c4cnn(C5CCNCC5)c4n3)ccc2o1 | > 6.00 | > 6.00 | > 6.00 | > 5.00 | > 7.00
13 |  |  | C[C@H]1CN(C2CN(c3cnc4ccc(-c5ccc6oc(N)nc6c5)cc4n3)C2)CCN1 | < 5.00 | > 7.00 | < 5.00 | > 5.00 | > 5.00
14 |  |  | Cc1cc2oc(N)nc2cc1-c1ccc2ncc(N3CC(N4CCOCC4)C3)nc2c1 | < 5.00 | > 5.00 | < 5.00 | < 5.00 | < 5.00
15 |  |  | Cc1nccn1C1CN(c2cnc3ccc(-c4ccc5oc(N)nc5c4)cc3n2)C1 | > 5.00 | > 7.00 | > 5.00 | > 5.00 | > 5.00
16 |  |  | Nc1nc2cc(-c3ccc4ncc(N5CC(N6CCOCC6)C5)nc4c3)c(F)cc2o1 | > 5.00 | > 7.00 | < 5.00 | > 5.00 | > 5.00
17 |  |  | CS(=O)(=O)N1CCN(C2CCN(c3cnc4ccc(-c5ccc6oc(N)nc6c5)cc4n3)CC2)CC1 | > 6.00 | > 7.00 | > 5.00 | > 5.00 | > 5.00
18 | > 7.00 | > 7.00 | Nc1nc2cc(-c3ccc4ncnc(NC5CCOCC5)c4c3)ccc2o1 [Compound 24] |  | > 7.00 |  |  | > 6.00
19 | > 5.00 | < 5.00 | Nc1nc2cc(-c3c[nH]c4nccc(-c5ccncc5)c34)ccc2o1 [Compound 25] |  | > 5.00 |  |  | < 5.00
20 | < 5.00 | < 5.00 | Nc1nc2cc(-c3ccc4ncn(C5CCOCC5)c4c3)ccc2o1 [Compound 48] |  | > 5.00 |  |  | < 5.00
21 | > 6.00 | > 6.00 | Nc1nc2cc(-c3ccc4ncc(-c5ccc(N6CCOCC6)nc5)n4c3)ccc2o1 [Compound 51] |  | > 7.00 |  |  | > 6.00
22 | < 5.00 | < 5.00 | Nc1nc2cc(-c3ccc4ncc(N5CCOCC5)n4c3)ccc2o1 [Compound 53] |  | > 5.00 |  |  | < 5.00

Row | Compound | pIC50 ([1]; read-out: PI3K γ IC50) | pIC50 [6] | pIC50 ([1]; read-out: PI3K δ IC50) | pIC50 [2] | pIC50 [3] | pIC50 [4] | pIC50 [5]
23 | C[C@@H]1CN(C2CN(c3cnc4ccc(-c5ccc6oc(N)nc6c5)nc4n3)C2)CCN1 | < 5.00 |  |  | > 7.00 | < 5.00 |  | < 5.00
24 | C[C@@H]1CN(c2cnc3ccc(-c4ccc5oc(N)nc5c4)nc3c2)CCN1 | > 5.00 |  |  | > 7.00 | < 5.00 |  | > 6.00
25 | Nc1ncnc2ccc(-c3ccc4nccc(-c5ccncc5)c4c3)cc12 [Compound 8] | > 6.00 |  |  | > 5.00 | < 5.00 |  | < 5.00
26 | Nc1ncc2cc(-c3ccc4nccc(-c5ccncc5)c4c3)ccc2n1 [Compound 9] | > 6.00 |  |  | > 6.00 | < 5.00 |  | > 5.00
